{
  "source": "ChEMBL document CHEMBL2321872",
  "about": "“Synthesis and antimycobacterial activity of 2,1'-dihydropyridomycins” (ACS Med Chem Lett, 2013)",
  "target": "Enoyl-[acyl-carrier-protein] reductase [NADH] (Mycobacterium tuberculosis, UniProt P9WGR1, S94A)",
  "note": "pKi: −log10 of the molar value.",
  "data": [
    {"smiles": "CC(C)[C@H]1OC(=O)[C@H](C)[C@H](O)[C@H](Cc2cccnc2)NC(=O)[C@@H](NC(=O)c2ncccc2O)[C@@H](C)OC1=O", "values": [
      {"measurement": "pKi", "result": 4.15}
    ]}
  ]
}
